# Legend:
# [1] = target: Kelch domain of human KEAP1 (321-624 aa) (Homo sapiens (Human), UniProt Q14145); assay: KEAP1 KELCH ThermoFluor binding assay; conditions: KEAP Kelch […], 1,8-ANS, pH 7.0, average of results obtained, read-out: Tf Kd;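 also: Ligand-induced melting temperature shift of E. coli-expressed KEAP1 Kelch protein, Kd estimated from concentration-response curves of ΔTm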
# [2] = tested on: Glo-Response ARE-luc2P HEK293 cell line; assay: ARE luciferase reporter cell-based assay; conditions: average of results obtained;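 also: luciferase signal tracks Nrf2 activation of the ARE once compounds disrupt KEAP1-Nrf2 binding, read with One-Glo reagent, DMSO serving as low control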
# Kelch domain of human KEAP1 (321-624 aa), sequence (Q14145 321-624): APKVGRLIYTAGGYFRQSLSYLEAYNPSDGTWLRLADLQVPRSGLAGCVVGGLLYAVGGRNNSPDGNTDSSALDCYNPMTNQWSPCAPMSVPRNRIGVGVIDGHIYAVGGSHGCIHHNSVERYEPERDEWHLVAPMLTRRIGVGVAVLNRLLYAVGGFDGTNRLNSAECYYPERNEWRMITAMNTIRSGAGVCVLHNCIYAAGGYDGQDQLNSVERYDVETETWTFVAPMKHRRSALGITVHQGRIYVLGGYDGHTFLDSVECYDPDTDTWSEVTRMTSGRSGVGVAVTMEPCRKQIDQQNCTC
Kd [1] [nM],Compound,"EC50 ([2]; Homo sapiens, HEK293, 24 h) [nM]",EC50 ([2]; 24 hours) [nM]
30,"Cc1ccc([C@H](CC(=O)O)c2ccn3c(C(F)(F)F)nnc3c2C)cc1CN1C[C@@H]2CN(C)CCN2c2ncccc2S1(=O)=O (single isomer, unassigned) [Example 178, (*S)-3-(4-Methyl-3-(((S)-9-methyl-5,5-dioxido-7,7a,8,9,10,11-hexahydro-6H-pyrazino[2,1-d]pyrido[2,3-f][1,2,5]thiadiazepin-6-yl)methyl)phenyl)-3-(8-methyl-3-(trifluoromethyl)-[1,2,4]triazolo[4,3-a]pyridin-7-yl)propanoic Acid]",440,
58,"Cc1ccc([C@@H](CC(=O)O)c2ccn3c(C(F)(F)F)nnc3c2C)cc1CN1C[C@@H]2CN(C)CCN2c2ncccc2S1(=O)=O (single isomer, unassigned) [Example 179, (*R)-3-(4-Methyl-3-(((*S)-9-methyl-5,5-dioxido-7,7a,8,9,10,11-hexahydro-6H-pyrazino[2,1-d]pyrido[2,3-f][1,2,5]thiadiazepin-6-yl)methyl)phenyl)-3-(8-methyl-3-(trifluoromethyl)-[1,2,4]triazolo[4,3-a]pyridin-7-yl)propanoic Acid]",2040,
110,"Cc1ccc([C@H](CC(=O)O)c2ccn3c(C(F)(F)F)nnc3c2C)cc1CN1C[C@H]2CN(C)CCN2c2ncccc2S1(=O)=O (single isomer, unassigned) [Example 181, (*S)-3-(4-Methyl-3-(((*R)-9-methyl-5,5-dioxido-7,7a,8,9,10,11-hexahydro-6H-pyrazino[2,1-d]pyrido[2,3-f][1,2,5]thiadiazepin-6-yl)methyl)phenyl)-3-(8-methyl-3-(trifluoromethyl)-[1,2,4]triazolo[4,3-a]pyridin-7-yl)propanoic Acid]",1110,
180,"Cc1ccc([C@@H](CC(=O)O)c2ccn3c(C(F)(F)F)nnc3c2C)cc1CN1C[C@H]2CN(C)CCN2c2ncccc2S1(=O)=O (single isomer, unassigned) [Example 182, (*R)-3-(4-Methyl-3-(((*R)-9-methyl-5,5-dioxido-7,7a,8,9,10,11-hexahydro-6H-pyrazino[2,1-d]pyrido[2,3-f][1,2,5]thiadiazepin-6-yl)methyl)phenyl)-3-(8-methyl-3-(trifluoromethyl)-[1,2,4]triazolo[4,3-a]pyridin-7-yl)propanoic Acid]",1390,
1.4,"Cc1ccc([C@H](CC(=O)O)c2ccn3c(C(F)(F)F)nnc3c2C)cc1CN1CC2(CC2)N(C)c2ncccc2S1(=O)=O (single isomer, unassigned) [Example 184, (*S)-3-(4-Methyl-3-((5′-methyl-1′,1′-dioxido-5′H-spiro[cyclopropane-1,4′-pyrido[2,3-f][1,2,5]thiadiazepin]-2′(3′H)-yl)methyl)phenyl)-3-(8-methyl-3-(t*rifluoromethyl)-[1,2,4]triazolo[4,3-a]pyridin-7-yl)propanoic Acid]",130,
12,"Cc1ccc([C@@H](CC(=O)O)c2ccn3c(C(F)(F)F)nnc3c2C)cc1CN1CC2(CC2)N(C)c2ncccc2S1(=O)=O (single isomer, unassigned) [Example 185, (*R)-3-(4-Methyl-3-((5′-methyl-1′,1′-dioxido-5′H-spiro[cyclopropane-1,4′-pyrido[2,3-f][1,2,5]thiadiazepin]-2′(3′H)-yl)methyl)phenyl)-3-(8-methyl-3-(trifluoromethyl)-[1,2,4]triazolo[4,3-a]pyridin-7-yl)propanoic Acid]",2720,
< 1,"Cc1ccc([C@@H](CC(=O)O)c2ccn3c(C(F)(F)F)nnc3c2C)cc1CN1C[C@]2(C)CCCN2c2ncccc2S1(=O)=O (single isomer, unassigned) [Example 187, (*R)-3-(4-Methyl-3-(((*S)-7a-methyl-5,5-dioxido-7a,8,9,10-tetrahydropyrido[2,3-f]pyrrolo[2,1-d][1,2,5]thiadiazepin-6(7H)-yl)methyl)phenyl)-3-(8-methyl-3-(trifluoromethyl)-[1,2,4]triazolo[4,3-a]pyridin-7-yl)propanoic Acid]",550,

# Continued, molecule first:
Compound,Kd [1] [nM],"EC50 ([2]; Homo sapiens, HEK293, 24 h) [nM]",EC50 ([2]; 24 hours) [nM]
"Cc1ccc([C@@H](CC(=O)O)c2ccn3c(C4CC4)nnc3c2C)cc1CN1C[C@H]2CCCN2c2ncccc2S1(=O)=O (single isomer, unassigned) [Example 169, (*R)-3-(3-Cyclopropyl-8-methyl-[1,2,4]triazolo[4,3-a]pyridin-7-yl)-3-(3-(((R)-5,5-dioxido-7a,8,9,10-tetrahydropyrido[2,3-f]pyrrolo[2,1-d][1,2,5]thiadiazepin-6(7H)-yl)methyl)-4-methylphenyl)propanoic Acid]",1.2,5910,
"Cc1ccc([C@H](CC(=O)O)c2ccc3c(nnn3CC3CC3)c2C(F)F)cc1CN1C[C@H]2CCCCN2c2ncccc2S1(=O)=O (single isomer, unassigned) [Example 170, (*S)-3-(1-(Cyclopropylmethyl)-4-(difluoromethyl)-1H-benzo[d][1,2,3]triazol-5-yl)-3-(3-(((*R)-5,5-dioxido-7,7a,8,9,10,11-hexahydro-6H-dipyrido[2,1-d:2′,3′-f][1,2,5]thiadiazepin-6-yl)methyl)-4-methylphenyl)propanoic Acid]",< 1,110,
"Cc1ccc([C@@H](CC(=O)O)c2ccc3c(nnn3CC3CC3)c2C(F)F)cc1CN1C[C@H]2CCCCN2c2ncccc2S1(=O)=O (single isomer, unassigned) [Example 171, (*R)-3-(1-(Cyclopropylmethyl)-4-(difluoromethyl)-1H-benzo[d][1,2,3]triazol-5-yl)-3-(3-(((*R)-5,5-dioxido-7,7a,8,9,10,11-hexahydro-6H-dipyrido[2,1-d:2′,3′-f][1,2,5]thiadiazepin-6-yl)methyl)-4-methylphenyl)propanoic Acid]",< 1,,88
"Cc1ccc([C@H](CC(=O)O)c2ccc3c(nnn3CC3CC3)c2C(F)F)cc1CN1C[C@@H]2CCCCN2c2ncccc2S1(=O)=O (single isomer, unassigned) [Example 172, (*S)-3-(1-(Cyclopropylmethyl)-4-(difluoromethyl)-1H-benzo[d][1,2,3]triazol-5-yl)-3-(3-(((*S)-5,5-dioxido-7,7a,8,9,10,11-hexahydro-6H-dipyrido[2,1-d:2′,3′-f][1,2,5]thiadiazepin-6-yl)methyl)-4-methylphenyl)propanoic Acid]",< 1,19,
"Cc1ccc([C@@H](CC(=O)O)c2ccc3c(nnn3CC3CC3)c2C(F)F)cc1CN1C[C@H]2CCCCN2c2ncccc2S1(=O)=O (single isomer, unassigned) [Example 173, (*R)-3-(1-(Cyclopropylmethyl)-4-(difluoromethyl)-1H-benzo[d][1,2,3]triazol-5-yl)-3-(3-(((R)-5,5-dioxido-7,7a,8,9,10,11-hexahydro-6H-dipyrido[2,1-d:2′,3′-f][1,2,5]thiadiazepin-6-yl)methyl)-4-methylphenyl)propanoic Acid]",4,,540
"CC[C@@H]1CN(Cc2nc([C@@H](CC(=O)O)c3ccc4c(nnn4C4CC4)c3C)ccc2C)S(=O)(=O)c2cccnc2O1 (single isomer, unassigned) [Example 175, (*S)-3-(1-Cyclopropyl-4-methyl-1H-benzo[d][1,2,3]triazol-5-yl)-3-(6-(((R)-4-ethyl-1,1-dioxido-3,4-dihydro-2H-pyrido[2,3-b][1,4,5]oxathiazepin-2-yl)methyl)-5-methylpyridin-2-yl)propanoic Acid]",< 1,5.3,
"CC[C@@H]1CN(Cc2nc([C@H](CC(=O)O)c3ccc4c(nnn4C4CC4)c3C)ccc2C)S(=O)(=O)c2cccnc2O1 (single isomer, unassigned) [Example 176, (*R)-3-(1-Cyclopropyl-4-methyl-1H-benzo[d][1,2,3]triazol-5-yl)-3-(6-(((R)-4-ethyl-1,1-dioxido-3,4-dihydro-2H-pyrido[2,3-b][1,4,5]oxathiazepin-2-yl)methyl)-5-methylpyridin-2-yl)propanoic Acid]",< 1,31,
"CC[C@@H]1CN(Cc2cc([C@H](CC(=O)O)c3ccn4c(C(F)(F)F)nnc4c3C)ccc2C)S(=O)(=O)c2cccnc2O1 (single isomer, unassigned) [Example 189, (*S)-3-(3-(((R)-4-Ethyl-1,1-dioxido-3,4-dihydro-2H-pyrido[2,3-b][1,4,5]oxathiazepin-2-yl)methyl)-4-methylphenyl)-3-(8-methyl-3-(trifluoromethyl)-[1,2,4]triazolo[4,3-a]pyridin-7-yl)propanoic Acid]",< 1,11,
"CC[C@@H]1CN(Cc2cc([C@@H](CC(=O)O)c3ccn4c(C(F)(F)F)nnc4c3C)ccc2C)S(=O)(=O)c2cccnc2O1 (single isomer, unassigned) [Example 190, (*R)-3-(3-(((R)-4-Ethyl-1,1-dioxido-3,4-dihydro-2H-pyrido[2,3-b][1,4,5]oxathiazepin-2-yl)methyl)-4-methylphenyl)-3-(8-methyl-3-(trifluoromethyl)-[1,2,4]triazolo[4,3-a]pyridin-7-yl)propanoic Acid]",< 1,57,
"Cc1ccc([C@H](CC(=O)O)c2ccn3c(C(F)(F)F)nnc3c2C)cc1CN1C[C@@H]2CCCCN2c2ncc(Cl)cc2S1(=O)=O (single isomer, unassigned) [Example 192, (*S)-3-(3-(((*S)-3-Chloro-5,5-dioxido-7,7a,8,9,10,11-hexahydro-6H-dipyrido[2,1-d:2′,3′-f][1,2,5]thiadiazepin-6-yl)methyl)-4-methylphenyl)-3-(8-methyl-3-(trifluoromethyl)-[1,2,4]triazolo[4,3-a]pyridin-7-yl)propanoic Acid]",< 1,1.4,

# — patent US10947252B2, “Inhibitors of KEAP1-Nrf2 protein-protein interaction” (Janssen Pharmaceutica NV, priority 2018, dated 2021)
